Article PMC11345841, “Exploring 2-Sulfonylpyrimidine Warheads as Acrylamide Surrogates for Targeted Covalent Inhibition: A BTK Story” (Journal of Medicinal Chemistry, 2024)
Where two headings read alike, the source gives them in different places.

Legend:
BTK, full length (2–659) = BTK, full length (2–659) (Homo sapiens, UniProt Q06187); assay: PhosphoSens enzymatic IC50 (AssayQuant); type: biochemical; settings: for IC50: 1 nM BTK, 1.0 mM ATP; for fold change, 1 nM BTK: IC50 0 min vs 60 min preincubation
Sequence of BTK, full length (2–659) (Q06187 2-659): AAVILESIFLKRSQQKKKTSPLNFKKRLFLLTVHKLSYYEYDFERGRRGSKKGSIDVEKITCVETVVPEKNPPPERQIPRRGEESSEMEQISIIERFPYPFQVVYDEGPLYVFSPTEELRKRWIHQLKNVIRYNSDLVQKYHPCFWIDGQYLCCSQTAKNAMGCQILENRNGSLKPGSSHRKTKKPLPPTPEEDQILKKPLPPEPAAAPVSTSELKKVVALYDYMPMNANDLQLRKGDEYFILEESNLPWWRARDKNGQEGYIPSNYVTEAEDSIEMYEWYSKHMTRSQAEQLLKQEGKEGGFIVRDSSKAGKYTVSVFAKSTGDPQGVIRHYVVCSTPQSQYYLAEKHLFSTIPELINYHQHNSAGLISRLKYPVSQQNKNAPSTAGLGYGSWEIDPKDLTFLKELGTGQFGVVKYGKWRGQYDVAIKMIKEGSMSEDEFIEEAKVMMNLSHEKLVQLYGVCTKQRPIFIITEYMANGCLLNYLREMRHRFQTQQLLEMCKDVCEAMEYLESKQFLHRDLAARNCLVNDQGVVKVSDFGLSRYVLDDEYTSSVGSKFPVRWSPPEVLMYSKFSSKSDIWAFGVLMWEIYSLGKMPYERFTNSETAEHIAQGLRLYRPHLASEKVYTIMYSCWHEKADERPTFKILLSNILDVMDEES
Description: (§1) Biochemical enzymatic IC50 data were generated by AssayQuant Technologies (Marlborough, MA) using the PhosphoSens Platform. […] Reaction rate versus log [inhibitor concentration] data were fitted to the four-parameter logistic equation [drawing 1]

[1] = target: T1, EGFR, cytoplasmic domain (669–1210) (Homo sapiens, UniProt P00533); assay: PhosphoSens enzymatic IC50 (AssayQuant); type: biochemical; settings: no preincubation
T1 construct: GST (N); purchased Carna Biosciences
T1 sequence (P00533 669-1210): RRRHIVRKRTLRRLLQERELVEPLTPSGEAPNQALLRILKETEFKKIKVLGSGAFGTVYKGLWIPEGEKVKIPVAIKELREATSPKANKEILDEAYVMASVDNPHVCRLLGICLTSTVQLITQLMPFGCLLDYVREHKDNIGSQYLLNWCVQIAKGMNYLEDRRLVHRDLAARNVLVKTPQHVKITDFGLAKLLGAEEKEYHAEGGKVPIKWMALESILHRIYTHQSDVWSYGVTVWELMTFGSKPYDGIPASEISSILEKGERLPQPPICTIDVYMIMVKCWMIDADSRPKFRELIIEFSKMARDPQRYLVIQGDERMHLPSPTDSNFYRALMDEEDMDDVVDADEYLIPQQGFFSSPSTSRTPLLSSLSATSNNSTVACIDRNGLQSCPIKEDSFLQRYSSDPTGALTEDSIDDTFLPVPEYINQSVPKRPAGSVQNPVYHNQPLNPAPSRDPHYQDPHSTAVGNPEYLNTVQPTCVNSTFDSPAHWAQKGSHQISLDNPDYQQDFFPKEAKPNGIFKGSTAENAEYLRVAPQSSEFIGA
Description: as §1

[2] = target: T2, ABL1(H396P)-nonphosphorylated (Homo sapiens, UniProt P00519, H396P); assay: KINOMEscan ScanTK; type: binding
T2 construct: purchased Eurofins DiscoverX KINOMEscan (scanTK)

CTK = target: T3, CTK (Homo sapiens, UniProt P42679); assay: KINOMEscan ScanTK; type: binding
T3 construct: purchased Eurofins DiscoverX KINOMEscan (scanTK)
T3 sequence (P42679 1-507): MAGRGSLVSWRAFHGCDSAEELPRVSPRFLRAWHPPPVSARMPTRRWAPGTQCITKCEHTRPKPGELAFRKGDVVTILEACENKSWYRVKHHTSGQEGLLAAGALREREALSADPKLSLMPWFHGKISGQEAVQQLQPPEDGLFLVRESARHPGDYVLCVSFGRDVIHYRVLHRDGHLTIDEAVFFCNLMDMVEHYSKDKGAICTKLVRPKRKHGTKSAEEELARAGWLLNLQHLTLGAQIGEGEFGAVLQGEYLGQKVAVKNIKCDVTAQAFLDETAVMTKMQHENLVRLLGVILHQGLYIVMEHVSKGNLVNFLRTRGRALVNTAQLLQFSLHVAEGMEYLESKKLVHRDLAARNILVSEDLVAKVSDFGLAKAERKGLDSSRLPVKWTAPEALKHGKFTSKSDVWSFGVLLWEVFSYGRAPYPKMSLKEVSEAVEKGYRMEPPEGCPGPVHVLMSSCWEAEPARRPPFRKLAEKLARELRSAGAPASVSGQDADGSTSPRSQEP

EPHA7 = target: T4, EPHA7 (Homo sapiens, UniProt Q15375); assay: KINOMEscan ScanTK; type: binding
T4 construct: purchased Eurofins DiscoverX KINOMEscan (scanTK)
T4 sequence (Q15375 28-998): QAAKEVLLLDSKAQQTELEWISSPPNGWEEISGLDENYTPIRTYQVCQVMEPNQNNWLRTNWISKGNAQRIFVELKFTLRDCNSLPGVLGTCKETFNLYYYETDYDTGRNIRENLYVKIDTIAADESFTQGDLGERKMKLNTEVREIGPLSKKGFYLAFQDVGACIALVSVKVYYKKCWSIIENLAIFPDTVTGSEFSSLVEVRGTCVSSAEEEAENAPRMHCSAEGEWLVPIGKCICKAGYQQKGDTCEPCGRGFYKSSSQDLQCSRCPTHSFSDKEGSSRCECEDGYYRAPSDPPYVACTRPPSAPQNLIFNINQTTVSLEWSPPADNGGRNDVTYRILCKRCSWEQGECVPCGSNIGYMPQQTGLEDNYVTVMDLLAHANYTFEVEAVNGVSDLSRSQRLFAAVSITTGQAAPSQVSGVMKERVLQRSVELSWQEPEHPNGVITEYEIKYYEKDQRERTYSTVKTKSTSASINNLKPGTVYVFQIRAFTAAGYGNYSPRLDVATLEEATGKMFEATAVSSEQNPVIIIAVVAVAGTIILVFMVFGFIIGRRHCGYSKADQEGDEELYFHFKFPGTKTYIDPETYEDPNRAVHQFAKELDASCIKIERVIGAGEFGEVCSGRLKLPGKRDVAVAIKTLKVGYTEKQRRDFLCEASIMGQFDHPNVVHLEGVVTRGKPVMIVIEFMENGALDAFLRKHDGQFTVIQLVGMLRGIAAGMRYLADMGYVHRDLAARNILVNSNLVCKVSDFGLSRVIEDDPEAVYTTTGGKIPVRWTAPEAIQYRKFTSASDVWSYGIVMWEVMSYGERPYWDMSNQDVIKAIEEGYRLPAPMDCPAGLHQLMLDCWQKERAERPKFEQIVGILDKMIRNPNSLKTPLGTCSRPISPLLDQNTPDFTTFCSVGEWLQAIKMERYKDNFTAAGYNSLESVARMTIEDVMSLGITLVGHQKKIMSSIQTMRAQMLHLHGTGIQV

ERBB4 = target: T5, ERBB4 (Homo sapiens, UniProt Q15303); assay: KINOMEscan ScanTK; type: binding
T5 construct: purchased Eurofins DiscoverX KINOMEscan (scanTK)
T5 sequence (Q15303 26-1308): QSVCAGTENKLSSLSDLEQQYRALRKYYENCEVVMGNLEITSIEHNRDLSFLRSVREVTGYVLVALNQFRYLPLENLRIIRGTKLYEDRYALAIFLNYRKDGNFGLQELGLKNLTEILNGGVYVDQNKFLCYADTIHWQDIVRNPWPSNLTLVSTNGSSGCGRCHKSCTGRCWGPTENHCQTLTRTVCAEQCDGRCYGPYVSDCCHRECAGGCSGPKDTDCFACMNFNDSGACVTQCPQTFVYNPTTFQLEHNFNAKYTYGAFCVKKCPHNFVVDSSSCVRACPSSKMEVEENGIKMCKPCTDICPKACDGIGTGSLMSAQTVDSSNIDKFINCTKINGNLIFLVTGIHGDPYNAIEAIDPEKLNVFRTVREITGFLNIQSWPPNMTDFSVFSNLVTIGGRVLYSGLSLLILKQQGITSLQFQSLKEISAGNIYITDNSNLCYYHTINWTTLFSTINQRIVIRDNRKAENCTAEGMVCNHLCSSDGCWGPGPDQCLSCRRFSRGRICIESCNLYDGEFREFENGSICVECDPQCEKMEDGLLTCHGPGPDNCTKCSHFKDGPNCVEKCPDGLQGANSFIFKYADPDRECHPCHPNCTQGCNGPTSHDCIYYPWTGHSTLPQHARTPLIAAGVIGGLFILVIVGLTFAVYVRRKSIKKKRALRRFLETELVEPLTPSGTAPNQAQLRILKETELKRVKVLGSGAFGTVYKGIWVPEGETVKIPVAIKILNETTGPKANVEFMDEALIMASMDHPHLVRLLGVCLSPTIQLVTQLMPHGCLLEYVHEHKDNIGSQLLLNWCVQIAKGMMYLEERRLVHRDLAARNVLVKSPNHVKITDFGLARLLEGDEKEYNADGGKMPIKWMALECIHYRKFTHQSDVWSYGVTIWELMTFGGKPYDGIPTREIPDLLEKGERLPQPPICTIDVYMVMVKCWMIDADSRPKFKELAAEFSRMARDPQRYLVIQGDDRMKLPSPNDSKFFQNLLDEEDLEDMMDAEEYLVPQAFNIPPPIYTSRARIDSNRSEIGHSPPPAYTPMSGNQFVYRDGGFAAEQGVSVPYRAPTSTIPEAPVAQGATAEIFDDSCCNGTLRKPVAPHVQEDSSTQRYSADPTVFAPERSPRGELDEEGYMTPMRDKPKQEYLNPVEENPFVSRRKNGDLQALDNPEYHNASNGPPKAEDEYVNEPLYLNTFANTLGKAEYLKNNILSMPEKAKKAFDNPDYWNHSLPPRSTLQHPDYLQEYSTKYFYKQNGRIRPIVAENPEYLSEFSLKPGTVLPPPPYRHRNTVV

FLT3(ITD,F691L) = assay: KINOMEscan ScanTK; type: binding; settings: for % difference (compound - Ib %Control) / %Control: @1000nM
FLT3(R834Q) = target: T6, FLT3(R834Q) (Homo sapiens, UniProt P36888, R834Q); assay: KINOMEscan ScanTK; type: binding
T6 construct: purchased Eurofins DiscoverX KINOMEscan (scanTK)
T6 sequence (P36888 27-993 R834Q): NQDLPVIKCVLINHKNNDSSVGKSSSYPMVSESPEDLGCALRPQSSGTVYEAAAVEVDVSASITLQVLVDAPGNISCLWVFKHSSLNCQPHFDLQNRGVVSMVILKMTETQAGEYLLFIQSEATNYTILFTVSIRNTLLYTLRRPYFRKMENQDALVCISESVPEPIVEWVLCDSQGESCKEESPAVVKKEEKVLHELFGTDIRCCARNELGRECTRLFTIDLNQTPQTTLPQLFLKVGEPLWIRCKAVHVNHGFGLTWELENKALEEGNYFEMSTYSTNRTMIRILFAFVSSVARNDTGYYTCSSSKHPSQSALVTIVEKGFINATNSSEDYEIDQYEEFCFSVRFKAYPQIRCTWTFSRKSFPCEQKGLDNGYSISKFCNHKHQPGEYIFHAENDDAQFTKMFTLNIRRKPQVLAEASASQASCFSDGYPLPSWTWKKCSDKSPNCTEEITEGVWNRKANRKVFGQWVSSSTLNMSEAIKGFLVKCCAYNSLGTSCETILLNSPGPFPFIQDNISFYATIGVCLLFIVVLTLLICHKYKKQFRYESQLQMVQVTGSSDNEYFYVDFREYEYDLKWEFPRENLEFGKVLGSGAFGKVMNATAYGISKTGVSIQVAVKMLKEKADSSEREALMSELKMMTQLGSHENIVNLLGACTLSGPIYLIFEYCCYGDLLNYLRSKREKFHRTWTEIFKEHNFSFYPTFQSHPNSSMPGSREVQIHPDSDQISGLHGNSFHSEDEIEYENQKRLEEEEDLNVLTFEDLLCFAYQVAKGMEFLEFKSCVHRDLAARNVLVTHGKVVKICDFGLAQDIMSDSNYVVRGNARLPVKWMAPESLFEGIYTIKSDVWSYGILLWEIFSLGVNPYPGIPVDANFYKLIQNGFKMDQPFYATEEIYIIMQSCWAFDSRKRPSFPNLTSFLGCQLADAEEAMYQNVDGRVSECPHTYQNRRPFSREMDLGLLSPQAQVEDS

KIT(D816H) = target: T7, KIT(D816H) (Homo sapiens, UniProt P10721, D816H); assay: KINOMEscan ScanTK; type: binding
T7 construct: purchased Eurofins DiscoverX KINOMEscan (scanTK)
T7 sequence (P10721 26-976 D816H): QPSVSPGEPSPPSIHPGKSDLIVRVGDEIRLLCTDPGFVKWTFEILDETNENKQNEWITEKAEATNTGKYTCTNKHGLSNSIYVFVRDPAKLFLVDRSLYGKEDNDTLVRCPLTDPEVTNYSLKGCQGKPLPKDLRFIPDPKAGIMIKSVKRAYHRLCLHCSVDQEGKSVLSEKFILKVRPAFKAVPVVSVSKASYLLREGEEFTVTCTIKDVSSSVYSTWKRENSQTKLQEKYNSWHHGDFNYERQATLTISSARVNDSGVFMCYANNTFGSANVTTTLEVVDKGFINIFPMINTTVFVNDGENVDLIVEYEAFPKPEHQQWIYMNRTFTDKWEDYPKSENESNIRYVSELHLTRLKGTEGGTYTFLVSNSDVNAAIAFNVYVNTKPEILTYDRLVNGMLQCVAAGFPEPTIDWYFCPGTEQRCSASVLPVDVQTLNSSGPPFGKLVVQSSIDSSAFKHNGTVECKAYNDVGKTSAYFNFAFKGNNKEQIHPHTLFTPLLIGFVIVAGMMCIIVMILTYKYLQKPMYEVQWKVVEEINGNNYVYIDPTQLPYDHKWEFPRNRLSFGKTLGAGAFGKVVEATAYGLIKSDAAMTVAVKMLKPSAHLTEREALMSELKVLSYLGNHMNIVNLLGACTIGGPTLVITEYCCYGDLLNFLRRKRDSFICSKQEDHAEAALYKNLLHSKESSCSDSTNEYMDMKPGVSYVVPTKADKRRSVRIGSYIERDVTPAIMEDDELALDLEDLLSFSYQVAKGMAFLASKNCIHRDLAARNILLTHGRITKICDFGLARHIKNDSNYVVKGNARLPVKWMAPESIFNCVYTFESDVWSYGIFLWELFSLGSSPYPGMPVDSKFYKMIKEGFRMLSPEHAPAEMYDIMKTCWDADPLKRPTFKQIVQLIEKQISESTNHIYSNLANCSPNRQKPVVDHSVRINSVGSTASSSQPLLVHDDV

[3] = 0 min preincubation IC50 (nM), 0 min preincubation
[4] = 60 min preincubation IC50 (nM), 60 min preincubation

Row | difference in %Control versus compound Ib at 1 µM ([2]; @1000nM) [%] | remaining binding at 1 µM ([2]; @1000nM, read-out: %Control) [%] | remaining binding at 1 µM ([2]; read-out: %Control @1000nM) [%] | difference in %Control versus compound Ib at 1 µM (CTK; @1000nM) [%] | remaining binding at 1 µM (CTK; @1000nM, read-out: %Control) [%] | remaining binding at 1 µM (CTK; read-out: %Control @1000nM) [%] | difference in %Control versus compound Ib at 1 µM (EPHA7; @1000nM) [%] | remaining binding at 1 µM (EPHA7; @1000nM, read-out: %Control) [%] | remaining binding at 1 µM (EPHA7; read-out: %Control @1000nM) [%] | difference in %Control versus compound Ib at 1 µM (ERBB4; @1000nM) [%] | remaining binding at 1 µM (ERBB4; @1000nM, read-out: %Control) [%] | remaining binding at 1 µM (ERBB4; read-out: %Control @1000nM) [%] | difference in %Control versus compound Ib at 1 µM (FLT3(R834Q); @1000nM) [%] | remaining binding at 1 µM (FLT3(R834Q); @1000nM, read-out: %Control) [%] | remaining binding at 1 µM (FLT3(R834Q); read-out: %Control @1000nM) [%] | remaining binding at 1 µM (KIT(D816H); @1000nM, read-out: %Control) [%] | remaining binding at 1 µM (KIT(D816H); read-out: %Control @1000nM) [%] | Compound | %Control @1000nM (FLT3(ITD,F691L)) [%] | % difference (compound - Ib %Control) (FLT3(ITD,F691L)) [%] | %Control (FLT3(ITD,F691L)) [%] | further results
1 | 41 | 55 | 55 | -6 | 74 | 74 | 2 | 97 | 97 | 5.15 | 5.2 | 5.2 | 38 | 99 | 99 | 55 | 55 | CCOC(=O)c1cnc(S(C)(=O)=O)nc1N1CCC[C@@H](n2nc(-c3ccc(Oc4ccccc4)cc3)c3c(N)ncnc32)C1 [Compound 8c, Ethyl (R)-4-(3-(4-Amino-3-(4-phenoxyphenyl)-1H-pyrazolo[3,4-d]pyrimidin-1-yl)piperidin-1-yl)-2-(methylsulfonyl)pyrimidine-5-carboxylate] | 100 | 0 | 100 | –
2 | 55 | 69 | 69 | 8 | 88 | 88 | -2 | 93 | 93 | 0.5 | 0.55 | 0.55 | 22 | 83 | 83 | 98 | 98 | COC(=O)c1cnc(S(C)(=O)=O)nc1N1CCCC(n2nc(-c3ccc(Oc4ccccc4)cc3)c3c(N)ncnc32)C1 (stereo not shown) [Compound 8b, Methyl 4-(3-(4-Amino-3-(4-phenoxyphenyl)-1H-pyrazolo[3,4-d]pyrimidin-1-yl)piperidin-1-yl)-2-(methylsulfonyl)pyrimidine-5-carboxylate] | 96 | -4 | 96 | IC50 (BTK, full length (2–659); [3]): 79 nM; IC50 (BTK, full length (2–659); [4]): 6.3 nM; fold change, 1 nM BTK (BTK, full length (2–659)): 12.5; 0 min IC50 (nM), 3 nM EGFR [1]: none of the compounds, 8a, 8b, or 8d, exhibited measurable inhibition; IC50 [1]: > 1000 nM

The remaining lines, values behind:

Row | Compound | difference in %Control versus compound Ib at 1 µM ([2]; @1000nM) [%] | remaining binding at 1 µM ([2]; @1000nM, read-out: %Control) [%] | remaining binding at 1 µM ([2]; read-out: %Control @1000nM) [%] | difference in %Control versus compound Ib at 1 µM (CTK; @1000nM) [%] | remaining binding at 1 µM (CTK; @1000nM, read-out: %Control) [%] | remaining binding at 1 µM (CTK; read-out: %Control @1000nM) [%] | difference in %Control versus compound Ib at 1 µM (EPHA7; @1000nM) [%] | remaining binding at 1 µM (EPHA7; @1000nM, read-out: %Control) [%] | remaining binding at 1 µM (EPHA7; read-out: %Control @1000nM) [%] | difference in %Control versus compound Ib at 1 µM (ERBB4; @1000nM) [%] | remaining binding at 1 µM (ERBB4; @1000nM, read-out: %Control) [%] | remaining binding at 1 µM (ERBB4; read-out: %Control @1000nM) [%] | difference in %Control versus compound Ib at 1 µM (FLT3(R834Q); @1000nM) [%] | remaining binding at 1 µM (FLT3(R834Q); @1000nM, read-out: %Control) [%] | remaining binding at 1 µM (FLT3(R834Q); read-out: %Control @1000nM) [%] | remaining binding at 1 µM (KIT(D816H); @1000nM, read-out: %Control) [%] | remaining binding at 1 µM (KIT(D816H); read-out: %Control @1000nM) [%] | %Control @1000nM (FLT3(ITD,F691L)) [%] | % difference (compound - Ib %Control) (FLT3(ITD,F691L)) [%] | %Control (FLT3(ITD,F691L)) [%] | further results
3 | CNC(=O)c1cnc(S(C)(=O)=O)nc1N1CCCC(n2nc(-c3ccc(Oc4ccccc4)cc3)c3c(N)ncnc32)C1 (stereo not shown) [Compound 8d, 4-(3-(4-Amino-3-(4-phenoxyphenyl)-1H-pyrazolo[3,4-d]pyrimidin-1-yl)piperidin-1-yl)-N-methyl-2-(methylsulfonyl)pyrimidine-5-carboxamide] | 28 | 42 | 42 | -3 | 77 | 77 | 4 | 99 | 99 | 0.05 | 0.1 | 0.1 | 29 | 90 | 90 | 50 | 50 | 100 | 0 | 100 | IC50 (BTK, full length (2–659); [3]): 3.6 nM; IC50 (BTK, full length (2–659); [4]): 1.2 nM; fold change, 1 nM BTK (BTK, full length (2–659)): 3.1; 0 min IC50 (nM), 3 nM EGFR [1]: none of the compounds, 8a, 8b, or 8d, exhibited measurable inhibition; IC50 [1]: > 1000 nM
4 | C=CC(=O)N1CCC[C@@H](n2nc(-c3ccc(Oc4ccccc4)cc3)c3c(N)ncnc32)C1 [Compound 1g, Ibrutinib, reference compound] | – | 14 | 14 | – | 80 | 80 | – | 95 | 95 | – | 0.05 | 0.05 | – | 61 | 61 | 100 | 100 | 100 | – | 100 | –
5 | Cc1cnc(S(C)(=O)=O)nc1N1CCCC(n2nc(-c3ccc(Oc4ccccc4)cc3)c3c(N)ncnc32)C1 (stereo not shown) [Compound 8a, 1-(1-(5-Methyl-2-(methylsulfonyl)pyrimidin-4-yl)piperidin-3-yl)-3-(4-phenoxyphenyl)-1H-pyrazolo[3,4-d]pyrimidin-4-amine] | 47 | 61 | 61 | -13 | 67 | 67 | 2 | 97 | 97 | 64 | 64 | 64 | 9 | 70 | 70 | 87 | 87 | 96 | -4 | 96 | IC50 (BTK, full length (2–659); [3]): 6 nM; IC50 (BTK, full length (2–659); [4]): 0.31 nM; fold change, 1 nM BTK (BTK, full length (2–659)): 19.6; 0 min IC50 (nM), 3 nM EGFR [1]: none of the compounds, 8a, 8b, or 8d, exhibited measurable inhibition; IC50 [1]: > 1000 nM
